Measured values reported in ChEMBL document CHEMBL4507268 (2021).

Experiments:
Conditions in all cases: Compound concentration 1000.0 nM
[1] = molecular target: T1, MAP kinase-activated protein kinase 5 (Homo sapiens) (UniProt Q8IW41)
T1 sequence (whole entry): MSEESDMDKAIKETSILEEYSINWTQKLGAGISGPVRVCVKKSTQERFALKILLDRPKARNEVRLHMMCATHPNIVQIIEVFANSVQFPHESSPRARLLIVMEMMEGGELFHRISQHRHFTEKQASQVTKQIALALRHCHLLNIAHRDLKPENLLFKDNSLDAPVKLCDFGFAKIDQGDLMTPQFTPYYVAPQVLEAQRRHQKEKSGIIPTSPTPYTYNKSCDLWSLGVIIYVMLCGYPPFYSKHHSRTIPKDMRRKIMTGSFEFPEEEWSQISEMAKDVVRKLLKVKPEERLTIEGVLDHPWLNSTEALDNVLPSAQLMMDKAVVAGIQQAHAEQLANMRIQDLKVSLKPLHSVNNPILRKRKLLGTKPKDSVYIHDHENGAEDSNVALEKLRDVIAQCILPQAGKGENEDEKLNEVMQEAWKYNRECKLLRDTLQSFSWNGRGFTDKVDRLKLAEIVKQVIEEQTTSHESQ

[2] = molecular target: Interleukin-1 receptor-associated kinase 1 (Homo sapiens) (UniProt P51617)
Chain of Interleukin-1 receptor-associated kinase 1 (Homo sapiens) (P51617 whole entry, looked up): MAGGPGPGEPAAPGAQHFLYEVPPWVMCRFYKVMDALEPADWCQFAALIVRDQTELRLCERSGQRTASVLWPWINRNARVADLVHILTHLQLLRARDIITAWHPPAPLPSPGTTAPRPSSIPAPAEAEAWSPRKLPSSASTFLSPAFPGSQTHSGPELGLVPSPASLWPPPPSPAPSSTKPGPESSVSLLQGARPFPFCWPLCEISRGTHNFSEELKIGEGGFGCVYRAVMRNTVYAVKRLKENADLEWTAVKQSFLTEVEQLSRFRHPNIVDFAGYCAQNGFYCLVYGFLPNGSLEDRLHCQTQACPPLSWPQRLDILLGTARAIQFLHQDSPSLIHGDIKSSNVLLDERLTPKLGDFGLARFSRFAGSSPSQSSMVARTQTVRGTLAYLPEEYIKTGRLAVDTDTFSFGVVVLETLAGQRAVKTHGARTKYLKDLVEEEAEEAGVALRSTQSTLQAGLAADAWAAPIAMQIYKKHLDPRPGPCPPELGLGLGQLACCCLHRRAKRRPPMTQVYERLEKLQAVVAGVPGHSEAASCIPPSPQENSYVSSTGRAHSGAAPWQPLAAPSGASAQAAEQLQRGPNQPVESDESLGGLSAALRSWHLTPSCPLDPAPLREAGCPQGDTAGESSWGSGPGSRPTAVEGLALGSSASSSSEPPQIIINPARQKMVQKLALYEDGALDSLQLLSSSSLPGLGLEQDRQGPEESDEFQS

[3] = molecular target: Fibroblast growth factor receptor 1 (Homo sapiens) (UniProt P11362)
Chain of Fibroblast growth factor receptor 1 (Homo sapiens) (P11362 22-822 limits assumed): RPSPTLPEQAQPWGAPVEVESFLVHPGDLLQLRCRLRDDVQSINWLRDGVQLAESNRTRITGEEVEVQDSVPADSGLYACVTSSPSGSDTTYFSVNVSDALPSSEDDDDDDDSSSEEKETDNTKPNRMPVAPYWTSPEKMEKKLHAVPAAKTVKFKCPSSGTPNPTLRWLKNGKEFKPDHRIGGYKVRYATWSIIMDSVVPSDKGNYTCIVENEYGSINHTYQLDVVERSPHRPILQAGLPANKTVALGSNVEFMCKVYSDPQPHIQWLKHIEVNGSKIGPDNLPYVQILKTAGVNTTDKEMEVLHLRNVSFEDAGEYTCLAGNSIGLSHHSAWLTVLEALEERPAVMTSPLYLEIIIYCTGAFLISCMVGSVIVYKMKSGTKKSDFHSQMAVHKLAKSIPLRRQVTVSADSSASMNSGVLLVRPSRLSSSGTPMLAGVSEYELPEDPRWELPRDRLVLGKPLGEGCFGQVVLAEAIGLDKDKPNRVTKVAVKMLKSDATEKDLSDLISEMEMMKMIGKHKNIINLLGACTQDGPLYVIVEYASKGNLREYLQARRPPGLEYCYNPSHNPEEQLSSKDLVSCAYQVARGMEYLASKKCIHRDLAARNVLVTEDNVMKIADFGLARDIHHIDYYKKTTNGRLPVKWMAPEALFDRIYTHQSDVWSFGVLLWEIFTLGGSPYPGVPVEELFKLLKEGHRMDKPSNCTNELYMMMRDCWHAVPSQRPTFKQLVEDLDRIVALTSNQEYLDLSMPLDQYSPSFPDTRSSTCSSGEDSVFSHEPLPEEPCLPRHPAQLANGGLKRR

[4] = molecular target: Protein kinase C theta type (Homo sapiens) (UniProt Q04759)
Chain of Protein kinase C theta type (Homo sapiens) (Q04759 whole entry, looked up): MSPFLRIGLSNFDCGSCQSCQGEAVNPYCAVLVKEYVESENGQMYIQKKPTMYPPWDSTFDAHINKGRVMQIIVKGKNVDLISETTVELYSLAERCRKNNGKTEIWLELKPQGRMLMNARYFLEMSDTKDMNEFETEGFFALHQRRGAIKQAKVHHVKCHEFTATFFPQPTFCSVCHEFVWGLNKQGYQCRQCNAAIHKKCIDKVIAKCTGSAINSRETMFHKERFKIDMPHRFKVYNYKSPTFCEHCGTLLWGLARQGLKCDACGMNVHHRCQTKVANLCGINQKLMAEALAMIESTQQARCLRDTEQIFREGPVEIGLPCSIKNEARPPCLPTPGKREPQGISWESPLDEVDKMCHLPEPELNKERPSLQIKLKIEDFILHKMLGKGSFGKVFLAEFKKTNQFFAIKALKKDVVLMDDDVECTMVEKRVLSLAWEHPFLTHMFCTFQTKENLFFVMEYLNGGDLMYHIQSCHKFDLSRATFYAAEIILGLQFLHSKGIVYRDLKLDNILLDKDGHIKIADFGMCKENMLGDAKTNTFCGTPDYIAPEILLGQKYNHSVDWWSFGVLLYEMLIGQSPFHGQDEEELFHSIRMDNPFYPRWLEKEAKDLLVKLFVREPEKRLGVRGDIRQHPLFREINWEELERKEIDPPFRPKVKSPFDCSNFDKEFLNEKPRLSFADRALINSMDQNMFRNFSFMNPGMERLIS

[5] = molecular target: T2, Mitogen-activated protein kinase kinase kinase 7 (Homo sapiens) (UniProt O43318)
T2 sequence (whole entry): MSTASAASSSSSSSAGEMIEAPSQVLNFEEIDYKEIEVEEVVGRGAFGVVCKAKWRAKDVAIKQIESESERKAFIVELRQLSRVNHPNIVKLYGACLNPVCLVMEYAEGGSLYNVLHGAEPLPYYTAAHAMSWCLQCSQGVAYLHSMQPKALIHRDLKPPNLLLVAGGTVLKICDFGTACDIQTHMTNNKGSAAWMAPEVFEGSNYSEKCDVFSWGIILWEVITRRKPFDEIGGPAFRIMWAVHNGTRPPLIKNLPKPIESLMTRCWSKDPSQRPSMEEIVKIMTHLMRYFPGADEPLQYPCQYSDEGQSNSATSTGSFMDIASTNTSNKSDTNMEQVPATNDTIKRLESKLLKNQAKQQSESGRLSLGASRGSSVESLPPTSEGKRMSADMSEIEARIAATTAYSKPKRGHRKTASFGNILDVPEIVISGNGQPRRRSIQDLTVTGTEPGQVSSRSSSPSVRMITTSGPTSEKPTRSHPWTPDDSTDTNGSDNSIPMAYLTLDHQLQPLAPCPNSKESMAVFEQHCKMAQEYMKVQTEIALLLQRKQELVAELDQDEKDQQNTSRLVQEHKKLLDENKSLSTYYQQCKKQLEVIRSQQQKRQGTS

[6] = molecular target: T3, Tyrosine-protein kinase ZAP-70 (Homo sapiens) (UniProt P43403)
T3 sequence (whole entry): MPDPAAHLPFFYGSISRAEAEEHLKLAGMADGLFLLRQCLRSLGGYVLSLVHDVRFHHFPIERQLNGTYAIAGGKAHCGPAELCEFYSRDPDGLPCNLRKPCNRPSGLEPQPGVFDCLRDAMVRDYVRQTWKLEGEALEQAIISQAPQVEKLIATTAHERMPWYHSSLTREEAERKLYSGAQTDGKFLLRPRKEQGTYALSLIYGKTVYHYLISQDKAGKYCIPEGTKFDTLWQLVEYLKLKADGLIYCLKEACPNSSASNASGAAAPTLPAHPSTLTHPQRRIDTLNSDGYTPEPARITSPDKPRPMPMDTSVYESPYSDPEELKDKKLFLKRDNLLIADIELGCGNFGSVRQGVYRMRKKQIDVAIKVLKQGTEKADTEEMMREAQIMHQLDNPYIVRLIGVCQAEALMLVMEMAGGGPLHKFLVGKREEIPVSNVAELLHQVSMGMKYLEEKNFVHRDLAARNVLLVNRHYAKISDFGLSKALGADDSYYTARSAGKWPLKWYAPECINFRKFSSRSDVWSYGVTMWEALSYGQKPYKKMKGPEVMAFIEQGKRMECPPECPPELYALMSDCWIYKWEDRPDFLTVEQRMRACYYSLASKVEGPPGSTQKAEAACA

[7] = molecular target: Receptor-interacting serine/threonine-protein kinase 4 (Homo sapiens) (UniProt P57078)
Chain of Receptor-interacting serine/threonine-protein kinase 4 (Homo sapiens) (P57078 whole entry): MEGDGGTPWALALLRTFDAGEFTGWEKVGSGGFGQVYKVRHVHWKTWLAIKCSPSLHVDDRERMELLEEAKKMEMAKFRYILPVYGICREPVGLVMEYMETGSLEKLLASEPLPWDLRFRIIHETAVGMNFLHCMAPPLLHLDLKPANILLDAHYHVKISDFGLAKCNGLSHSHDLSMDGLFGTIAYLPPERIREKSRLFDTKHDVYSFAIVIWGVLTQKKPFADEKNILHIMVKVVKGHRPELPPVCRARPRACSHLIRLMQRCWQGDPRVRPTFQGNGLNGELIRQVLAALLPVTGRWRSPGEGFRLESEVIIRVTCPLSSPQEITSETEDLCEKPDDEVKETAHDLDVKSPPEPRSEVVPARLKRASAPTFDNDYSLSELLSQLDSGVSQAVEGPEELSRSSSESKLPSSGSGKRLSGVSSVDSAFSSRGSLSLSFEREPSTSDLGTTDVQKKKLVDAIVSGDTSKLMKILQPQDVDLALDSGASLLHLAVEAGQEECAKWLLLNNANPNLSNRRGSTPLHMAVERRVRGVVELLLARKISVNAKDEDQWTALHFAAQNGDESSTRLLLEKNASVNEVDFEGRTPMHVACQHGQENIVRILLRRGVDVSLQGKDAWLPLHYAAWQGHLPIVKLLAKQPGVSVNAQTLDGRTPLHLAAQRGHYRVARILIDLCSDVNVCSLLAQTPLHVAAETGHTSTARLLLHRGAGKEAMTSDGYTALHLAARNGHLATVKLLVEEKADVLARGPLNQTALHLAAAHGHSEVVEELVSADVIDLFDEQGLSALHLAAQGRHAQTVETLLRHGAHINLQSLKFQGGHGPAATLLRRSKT

[8] = system: Tyrosine-protein kinase ABL1 (Homo sapiens), P00519 [F317L]
Chain of Tyrosine-protein kinase ABL1 (Homo sapiens), P00519 [F317L] (P00519 whole entry F317L): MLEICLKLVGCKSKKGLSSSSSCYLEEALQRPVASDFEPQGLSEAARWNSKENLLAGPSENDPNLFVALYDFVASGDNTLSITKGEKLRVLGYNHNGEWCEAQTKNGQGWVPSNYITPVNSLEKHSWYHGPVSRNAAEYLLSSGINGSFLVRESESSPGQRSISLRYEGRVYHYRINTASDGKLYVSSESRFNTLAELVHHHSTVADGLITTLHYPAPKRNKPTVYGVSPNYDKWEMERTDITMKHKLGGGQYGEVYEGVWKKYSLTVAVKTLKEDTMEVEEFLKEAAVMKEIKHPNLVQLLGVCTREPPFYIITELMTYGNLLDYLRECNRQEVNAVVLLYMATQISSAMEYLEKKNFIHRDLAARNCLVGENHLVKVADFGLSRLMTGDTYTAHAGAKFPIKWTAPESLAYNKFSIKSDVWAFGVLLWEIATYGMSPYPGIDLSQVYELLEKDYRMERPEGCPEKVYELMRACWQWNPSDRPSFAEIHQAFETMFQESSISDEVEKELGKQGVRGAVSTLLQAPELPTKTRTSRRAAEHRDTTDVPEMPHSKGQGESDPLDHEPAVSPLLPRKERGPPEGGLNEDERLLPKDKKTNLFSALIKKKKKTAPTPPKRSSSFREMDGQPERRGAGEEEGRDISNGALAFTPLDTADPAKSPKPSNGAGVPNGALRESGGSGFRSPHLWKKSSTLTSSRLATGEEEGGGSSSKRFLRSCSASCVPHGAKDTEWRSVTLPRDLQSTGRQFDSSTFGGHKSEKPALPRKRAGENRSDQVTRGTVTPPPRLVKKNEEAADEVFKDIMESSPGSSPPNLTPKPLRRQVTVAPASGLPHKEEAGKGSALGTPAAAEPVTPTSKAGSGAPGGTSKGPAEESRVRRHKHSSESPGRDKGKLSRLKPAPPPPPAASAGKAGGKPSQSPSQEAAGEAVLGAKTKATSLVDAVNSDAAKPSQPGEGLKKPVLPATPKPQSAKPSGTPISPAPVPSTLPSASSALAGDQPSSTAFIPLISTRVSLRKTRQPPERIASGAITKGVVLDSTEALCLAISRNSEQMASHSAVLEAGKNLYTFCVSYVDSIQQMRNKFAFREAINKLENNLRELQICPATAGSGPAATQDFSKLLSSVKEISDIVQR

[9] = molecular target: Calcium/calmodulin-dependent protein kinase type 1D (Homo sapiens) (UniProt Q8IU85)
Chain of Calcium/calmodulin-dependent protein kinase type 1D (Homo sapiens) (Q8IU85 whole entry, looked up): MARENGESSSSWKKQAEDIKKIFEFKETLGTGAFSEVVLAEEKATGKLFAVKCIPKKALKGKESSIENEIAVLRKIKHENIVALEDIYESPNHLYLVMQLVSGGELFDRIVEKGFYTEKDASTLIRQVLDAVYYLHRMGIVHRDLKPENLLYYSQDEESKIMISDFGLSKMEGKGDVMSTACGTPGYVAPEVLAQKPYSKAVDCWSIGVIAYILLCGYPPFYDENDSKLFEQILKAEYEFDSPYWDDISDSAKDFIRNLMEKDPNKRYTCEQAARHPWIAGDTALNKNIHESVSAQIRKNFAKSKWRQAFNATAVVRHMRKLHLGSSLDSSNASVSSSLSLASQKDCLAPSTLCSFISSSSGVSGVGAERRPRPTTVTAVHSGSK

[10] = molecular target: T4, Serine/threonine-protein kinase BRSK1 (Homo sapiens) (UniProt Q8TDC3)
T4 sequence (whole entry): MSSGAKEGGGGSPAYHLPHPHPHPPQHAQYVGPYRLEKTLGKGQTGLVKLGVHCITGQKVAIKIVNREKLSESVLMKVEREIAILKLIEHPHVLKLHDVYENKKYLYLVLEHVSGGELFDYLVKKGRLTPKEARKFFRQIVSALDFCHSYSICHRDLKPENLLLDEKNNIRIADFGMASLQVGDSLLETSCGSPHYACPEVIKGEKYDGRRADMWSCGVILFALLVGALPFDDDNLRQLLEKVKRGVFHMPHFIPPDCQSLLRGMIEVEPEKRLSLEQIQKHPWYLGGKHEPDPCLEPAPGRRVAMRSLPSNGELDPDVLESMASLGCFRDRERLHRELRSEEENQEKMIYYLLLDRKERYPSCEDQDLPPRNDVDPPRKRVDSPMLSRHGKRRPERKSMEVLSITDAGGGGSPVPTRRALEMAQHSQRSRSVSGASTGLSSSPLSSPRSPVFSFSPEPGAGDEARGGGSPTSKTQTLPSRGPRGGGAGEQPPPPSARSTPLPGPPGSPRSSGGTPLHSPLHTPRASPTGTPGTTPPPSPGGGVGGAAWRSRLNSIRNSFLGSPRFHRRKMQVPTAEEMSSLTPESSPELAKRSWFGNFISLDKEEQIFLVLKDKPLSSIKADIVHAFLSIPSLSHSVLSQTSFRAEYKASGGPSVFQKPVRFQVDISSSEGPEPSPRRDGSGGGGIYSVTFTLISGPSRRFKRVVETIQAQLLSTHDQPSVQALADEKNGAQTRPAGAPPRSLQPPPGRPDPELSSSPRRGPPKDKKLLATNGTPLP

Measured: residual activity

Cc1nc(C2CCN(C(=O)c3ccc(OC(F)(F)F)cc3N)CC2)c2ncc(N3CCN(C)CC3)cc2n1 [BAY-693]
inactive: [1] 94% | [2] 100% | [3] 100% | [4] 93% | [5] 100% | [6] 100% | [7] 84% | [8] 97% | [9] 100% | [10] 100%

CN1CCN(c2cnc3c(C4CCN(C(=O)c5ccc(OC(F)(F)F)cc5N)CC4)ncnc3c2)CC1 [BAY-885]
inactive: [1] 100% | [2] 100% | [3] 100% | [4] 91% | [5] 100% | [6] 100% | [7] 100% | [8] 100% | [9] 100% | [10] 100%
